In patent US12582641B2, “Sulfur-containing compound based on glutarimide skeleton and application thereof” (SHANGHAITECH UNIVERSITY, priority 2019, dated 2026):

Each compound was assayed on MM.1S cells (assay: Proliferation inhibition (IC50) in MM.1S cells, cell viability assay). Settings: Homo sapiens, MM1.S, 72 h, read-out: IC50 (nM), proliferation inhibitory activity of MM.1S cells (half inhibitory concentration).

SMILES	IC50
O=C1CCC(N2Cc3c(SCCCCCCCCSc4cccc5c4CN(C4CCC(=O)NC4=O)C5=O)cccc3C2=O)C(=O)N1 (stereo not shown) [SIAIS1216137B, 3,3′-((octane-1,8-diylbis(sulfanediyl))bis(1-oxoisoindoline-4,2-diyl))bis(piperidine-2,6-dione)]	1.41 nM
CCN(CC)CCCCCSc1cccc2c1CN(C1CCC(=O)NC1=O)C2=O (stereo not shown) [SIAIS1216139, 3-(4-((5-(diethylamino)pentyl)thio)-1-oxoisoindolin-2-yl)piperidine-2,6-dione]	4.06 ± 0.64 nM
CNCCCCCSc1cccc2c1CN(C1CCC(=O)NC1=O)C2=O (stereo not shown) [SIAIS1216141, 3-(4-((5-(methylamino)pentyl)thio)-1-oxoisoindolin-2-yl)piperidine-2,6-dione]	12.6 ± 3.47 nM
O=C1CCC(N2Cc3c(SCCCCCCCCN4CCOCC4)cccc3C2=O)C(=O)N1 (stereo not shown) [SIAIS1216143, 3-(4-((8-morpholinooctyl)thio)-1-oxoisoindolin-2-yl)piperidine-2,6-dione]	0.17 ± 0.04 nM
O=C1CCC(N2Cc3c(SCCCCCCCCN4CCNCC4)cccc3C2=O)C(=O)N1 (stereo not shown) [SIAIS1216145, 3-(1-oxo-4-((8-(piperazin-1-yl)octyl)thio)isoindolin-2-yl)piperidine-2,6-dione]	3.86 ± 0.87 nM
CCN(CC)CCCCCCCCSc1cccc2c1CN(C1CCC(=O)NC1=O)C2=O (stereo not shown) [SIAIS1216147, 3-(4-((8-(diethylamino)octyl)thio)-1-oxoisoindolin-2-yl)piperidine-2,6-dione]	0.19 ± 0.04 nM
CN(C)CCCCCCCCSc1cccc2c1CN(C1CCC(=O)NC1=O)C2=O (stereo not shown) [SIAIS1216149, 3-(4-((8-(dimethylamino)octyl)thio)-1-oxoisoindolin-2-yl)piperidine-2,6-dione]	0.32 ± 0.15 nM
CNCCCCCCCCSc1cccc2c1CN(C1CCC(=O)NC1=O)C2=O (stereo not shown) [SIAIS1216151, 3-(4-((8-(methylamino)octyl)thio)-1-oxoisoindolin-2-yl)piperidine-2,6-dione]	0.33 ± 0.15 nM
O=C1CCC(N2Cc3c(SCCCO)cccc3C2=O)C(=O)N1 (stereo not shown) [SIAIS1216189, 3-(4-((3-hydroxypropyl)thio)-1-oxoisoindolin-2-yl)piperidine-2,6-dione]	2.25 nM
CN(C)CCOCCOCCSc1cccc2c1CN(C1CCC(=O)NC1=O)C2=O (stereo not shown) [SIAIS1216195, 3-(4-((2-(2-(2-(dimethylamino)ethoxy)ethoxy)ethyl)thio)-1-oxoisoindolin-2-yl)piperidine-2,6-dione]	4.96 ± 0.54 nM
O=C1CCC(N2Cc3c(SCCCCCCCCN4CCCCC4)cccc3C2=O)C(=O)N1 (stereo not shown) [SIAIS1220009, 3-(1-oxo-4-((8-(piperidin-1-yl)octyl)thio)isoindolin-2-yl)piperidine-2,6-dione]	0.12 ± 0.03 nM
CN1CCN(CCCCCCCCSc2cccc3c2CN(C2CCC(=O)NC2=O)C3=O)CC1 (stereo not shown) [SIAIS1220011, 3-(4-((8-(4-methylpiperazin-1-yl)octyl)thio)-1-oxoisoindolin-2-yl)piperidine-2,6-dione]	0.57 ± 0.21 nM
O=C1CCC(N2Cc3c(SCCCCCCCCN4CCCNCC4)cccc3C2=O)C(=O)N1 (stereo not shown) [SIAIS1220017, 3-(4-((8-(1,4-diazepan-1-yl)octyl)thio)-1-oxoisoindolin-2-yl)piperidine-2,6-dione]	2.77 nM
O=C1CCC(N2Cc3c(SCCCCCCCCN4CCC(N5CCNCC5)CC4)cccc3C2=O)C(=O)N1 (stereo not shown) [SIAIS1220019, 3-(1-oxo-4-((8-(4-(piperazin-1-yl)piperidin-1-yl)octyl)thio)isoindolin-2-yl)piperidine-2,6-dione]	2.08 nM
CC(C)N(CCCCCCCCSc1cccc2c1CN(C1CCC(=O)NC1=O)C2=O)C(C)C (stereo not shown) [SIAIS1220021, 3-(4-((8-(diisopropylamino)octyl)thio)-1-oxoisoindolin-2-yl)piperidine-2,6-dione]	0.16 ± 0.05 nM
O=C1CCC(N2Cc3c(SCCCCCCCCCCN4CCOCC4)cccc3C2=O)C(=O)N1 (stereo not shown) [SIAIS1220023, 3-(4-((10-morpholinodecyl)thio)-1-oxoisoindolin-2-yl)piperidine-2,6-dione]	0.46 ± 0.19 nM
CCN(CC)CCCCCCCCCCSc1cccc2c1CN(C1CCC(=O)NC1=O)C2=O (stereo not shown) [SIAIS1220025, 3-(4-((10-(diethylamino)decyl)thio)-1-oxoisoindolin-2-yl)piperidine-2,6-dione]	0.49 ± 0.05 nM
O=C1CCC(N2Cc3c(SCCCCCCN4CCOCC4)cccc3C2=O)C(=O)N1 (stereo not shown) [SIAIS1220027, 3-(4-((6-morpholinohexyl)thio)-1-oxoisoindolin-2-yl)piperidine-2,6-dione]	0.7 nM
CCN(CC)CCCCCCSc1cccc2c1CN(C1CCC(=O)NC1=O)C2=O (stereo not shown) [SIAIS1220029, 3-(4-((6-(diethylamino)hexyl)thio)-1-oxoisoindolin-2-yl)piperidine-2,6-dione]	1.13 nM
O=C1CCC(N2Cc3c(SCCCCCCCN4CCOCC4)cccc3C2=O)C(=O)N1 (stereo not shown) [SIAIS1220031, 3-(4-((7-morpholinoheptyl)thio)-1-oxoisoindolin-2-yl)piperidine-2,6-dione]	0.22 ± 0.04 nM

SMILES	IC50
CCN(CC)CCCCCCCSc1cccc2c1CN(C1CCC(=O)NC1=O)C2=O (stereo not shown) [SIAIS1220033, 3-(4-((7-(diethylamino)heptyl)thio)-1-oxoisoindolin-2-yl)piperidine-2,6-dione]	0.23 ± 0.08 nM
CCN(CC)CCNCCCCCSc1cccc2c1CN(C1CCC(=O)NC1=O)C2=O (stereo not shown) [SIAIS1220035, 3-(4-((5-((2-(diethylamino)ethyl)amino)pentyl)thio)-1-oxoisoindolin-2-yl)piperidine-2,6-dione]	4.13 ± 1.43 nM
CCN(CC)CCNCCCCCCCCSc1cccc2c1CN(C1CCC(=O)NC1=O)C2=O (stereo not shown) [SIAIS1220037, 3-(4-((8-((2-(diethylamino)ethyl)amino)octyl)thio)-1-oxoisoindolin-2-yl)piperidine-2,6-dione]	0.83 ± 0.39 nM
O=C1CCC(N2Cc3c(SCCCCCCCCCCCN4CCOCC4)cccc3C2=O)C(=O)N1 (stereo not shown) [SIAIS1220045, 3-(4-((11-morpholinoundecyl)thio)-1-oxoisoindolin-2-yl)piperidine-2,6-dione]	0.36 ± 0.13 nM
CCN(CC)CCCCCCCCCCCSc1cccc2c1CN(C1CCC(=O)NC1=O)C2=O (stereo not shown) [SIAIS1220047, 3-(4-((11-(diethylamino)undecyl)thio)-1-oxoisoindolin-2-yl)piperidine-2,6-dione]	0.11 ± 0.01 nM
CN1CCN(C2CCN(CCCCCCCCSc3cccc4c3CN(C3CCC(=O)NC3=O)C4=O)CC2)CC1 (stereo not shown) [SIAIS1220049, 3-(4-((8-(4-(4-methylpiperazin-1-yl)piperidin-1-yl)octyl)thio)-1-oxoisoindolin-2-yl)piperidine-2,6-dione]	0.26 nM
CN1CCCN(CCCCCCCCSc2cccc3c2CN(C2CCC(=O)NC2=O)C3=O)CC1 (stereo not shown) [SIAIS1220051, 3-(4-((8-(4-methyl-1,4-diazepan-1-yl)octyl)thio)-1-oxoisoindolin-2-yl)piperidine-2,6-dione]	0.75 nM
O=C1CCC(N2Cc3c(SCCCCCCCCN4CCC(F)(F)CC4)cccc3C2=O)C(=O)N1 (stereo not shown) [SIAIS1220055, 3-(4-((8-(4,4-difluoropiperidin-1-yl)octyl)thio)-1-oxoisoindolin-2-yl)piperidine-2,6-dione]	0.26 nM
CC1CN(CCCCCCCCSc2cccc3c2CN(C2CCC(=O)NC2=O)C3=O)CC(C)N1 (stereo not shown) [SIAIS1220057, 3-(4-((8-(3,5-dimethylpiperazin-1-yl)octyl)thio)-1-oxoisoindolin-2-yl)piperidine-2,6-dione]	0.77 nM
O=C1CCC(N2Cc3c(SCCCCCCCCCSc4cccc5c4CN(C4CCC(=O)NC4=O)C5=O)cccc3C2=O)C(=O)N1 (stereo not shown) [SIAIS1220059B, 3,3′-((nonane-1,9-diylbis(sulfanediyl))bis(1-oxoisoindoline-4,2-diyl))bis(piperidine-2,6-dione)]	1.7 nM
O=C1CCC(N2Cc3c(SCCCCCCCCN4CCN(CCCCCCCCSc5cccc6c5CN(C5CCC(=O)NC5=O)C6=O)CC4)cccc3C2=O)C(=O)N1 (stereo not shown) [SIAIS1220061, 3,3′-(((piperazine-1,4-diylbis(octane-8,1-diyl))bis(sulfanediyl))bis(1-oxoisoindoline-4,2-diyl))bis(piperidine-2,6-dione)]	0.49 nM
O=C1CCC(N2Cc3c(SCCCCCCCCCN4CCOCC4)cccc3C2=O)C(=O)N1 (stereo not shown) [SIAIS1220065, 3-(4-((9-morpholinononyl)thio)-1-oxoisoindolin-2-yl)piperidine-2,6-dione]	0.49 nM
CCN(CC)CCCCCCCCCSc1cccc2c1CN(C1CCC(=O)NC1=O)C2=O (stereo not shown) [SIAIS1220067, 3-(4-((9-(diethylamino)nonyl)thio)-1-oxoisoindolin-2-yl)piperidine-2,6-dione]	0.25 nM
O=C1CCC(N2Cc3c(SCCCCCO)cccc3C2=O)C(=O)N1 (stereo not shown) [SIAIS1220069, 3-(4-((5-hydroxypentyl)thio)-1-oxoisoindolin-2-yl)piperidine-2,6-dione]	3.21 nM
O=C1CCC(N2Cc3c(SCCCCCCCCNC45CC6CC(CC(C6)C4)C5)cccc3C2=O)C(=O)N1 (stereo not shown) [SIAIS1220087, 3-(4-((8-((adamantan-1-yl)amino)octyl)thio)-1-oxoisoindolin-2-yl)piperidine-2,6-dione]	0.12 nM
O=C1CCC(N2Cc3c(SCCCCCCCCNC4C5CC6CC(C5)CC4C6)cccc3C2=O)C(=O)N1 (stereo not shown) [SIAIS1220089, 3-(4-((8-((adamantan-2-yl)amino)octyl)thio)-1-oxoisoindolin-2-yl)piperidine-2,6-dione]	0.07 nM
CC[N+](CC)(CC)CCCCCCCCSc1cccc2c1CN(C1CCC(=O)NC1=O)C2=O (stereo not shown) [SIAIS1220093, 8-((2-(2,6-dioxopiperidin-3-yl)-1-oxoisoindolin-4-yl)thio)-N,N,N-triethyloctan-1-aminium chloride]	8.2 nM
O=C1CCC(N2Cc3c(SCCCCCCCN4CCCCC4)cccc3C2=O)C(=O)N1 (stereo not shown) [SIAIS1220105, 3-(1-oxo-4-((7-(piperidin-1-yl)heptyl)thio)isoindolin-2-yl)piperidine-2,6-dione]	0.06 nM
CC(C)N(CCCCCCCSc1cccc2c1CN(C1CCC(=O)NC1=O)C2=O)C(C)C (stereo not shown) [SIAIS1220107, 3-(4-((7-(diisopropylamino)heptyl)thio)-1-oxoisoindolin-2-yl)piperidine-2,6-dione]	0.03 nM

Same assay, conditions: Homo sapiens, MM1.S, 72 h, read-out: IC50 against MM.1S cells (proliferation inhibition)

SMILES	IC50
O=C1CCC(N2Cc3c(SCCCCCCCCN4CCCCC4)cccc3C2=O)C(=O)N1 (stereo not shown) [SIAIS1220009, 3-(1-oxo-4-((8-(piperidin-1-yl)octyl)thio)isoindolin-2-yl)piperidine-2,6-dione]	~0.12 nM
